Experimental data taken from US8884011B2, “Nucleotide analogues as precursor molecules for antivirals” (Centre National de la Recherche Scientifique-CNRS, priority 2006, dated 2014).

Tests used:
[1] = Stability in complete medium (RPMI 1640 containing 10% heat-inactivated fetal calf serum), HPLC; type: in vitro ADME
Description: (§1) Media and preparation of cell extracts. Culture medium was composed by RPMI 1640 containing 10% (v/v) heat-inactivated fetal calf serum and stored at −80° C. CEM-SS cell extracts were prepared according to a published procedure (Puech, F. et al. Antiv. Res. 1993, 22, 155-174). Exponentially growing CEM-SS cells were recovered by centrifugation (500 g, 4° C., 4 min), washed twice with PBS and resuspended in 10 mM Tris-HCl, 140 mM KCl (pH 7.4), at the concentration of 30×10^6 cells/mL. Cells were lyzed by ultrasonic treatment and cellular debris were removed by centrifugation (10000 g, 4° C., 20 min). The supernatant containing soluble proteins (3 mg/mL) was stored at −80° C.
Kinetic data and decomposition pathways for compounds 6 and 11 were studied at 37° C. (a) in complete medium (RPMI 1640 containing 10% heat-inactivated fetal calf serum (b) in total cells extracts (CEM-SS). For each kinetic study, the compound solution was diluted with a freshly thawed aliquot of the considered medium to obtain an initial concentration of 0.1 mM. The mixture was incubated at 37° C. and for the required time, an aliquot (10% solution) was taken and immediately frozen at −80° C. for further HPLC analysis. The crude sample was injected into the precolumn and eluted with buffer A during 5 min. Then, the switching valve for connecting the precolumn to the column was activated, and a linear gradient from buffer A to buffer B, increasing buffer B from 0% at 0 min to 20% at 40 min is applied. The retention times were 6, 26 min; 11, 29.5 min, PMEA, 24.3 min and (R)-PMPA, 27.8 min.
All the compounds were analyzed under the same conditions. The amount of remaining parent compound at each time point was used to determine the half-life of the compound. The product of degradation from parent compound was determined by comparison with corresponding references.

Reovirus-1 = test: Virus panel, CPE assay: Reovirus-1 in Vero cells; type: cell-based; conditions: Reovirus-1, Vero cells; read-out: in vitro antiviral activity (EC50), none up to
[2] = Cytotoxicity in CEM cell cultures (cell density); type: cell-based; conditions: human, 50% reduction in cell density, read-out: TC50 (the source's name)
HIV-1-LAI = test: Anti-HIV test in CMSP cultures infected by HIV-1-LAI (RT activity in supernatants); type: cell-based; conditions: Human immunodeficiency virus 1, 168 h, read-out: EC50 (μM) HIV-1 (LAI)
Sindbis virus = test: Virus panel, CPE assay: Sindbis virus in Vero cells; type: cell-based; conditions: read-out: in vitro antiviral activity (EC50), none up to
Parainfluenza-3-virus = test: Virus panel, CPE assay: Parainfluenza-3-virus in Vero cells; type: cell-based; conditions: read-out: in vitro antiviral activity (EC50), none up to
HBV [3] = test: Anti-HBV test in infected HepAD38 cells (intracellular viral DNA by Q-PCR); type: cell-based; conditions: Hepatitis B virus, 144 h; infected HepAD38 cells; 50% reduction of viral DNA; day 6 post-induction
Description: These are hepatoma cells that have been stably transfected with a cDNA copy of the pregenomic RNA of wild-type virus. Withdrawal of tetracycline from the culture medium results in the initiation of viral replication. This offers the advantage, in contrast to the Hep G2.2.15 cell lines commonly used, that there is no, or very limited background viral DNA synthesis. Cells were cultured at 37° C. in a humidified 5% CO2/air atmosphere in seeding medium, DMEM/Ham's F12 (50/50) supplemented with 10% (v/v) heat-inactivated fetal calf serum, 100 IU/ml penicillin, 50 μg/ml streptomycin, 100 Ξg/ml kanamycin, 400 μg/ml G418, and 0.3 μg/ml tetracycline. […] After 2-3 days the cultures were induced for viral production by washing with prewarmed PBS and were fed with […] assay medium (seeding medium without tetracycline and G418) with or without the antiviral compounds. Medium was changed after 3 days. The antiviral effect was quantified by measuring levels of intracellular viral DNA at day 6 post-induction, by a real time quantitative PCR (Q-PCR) method. Total cellular DNA was extracted from the cells by means of a commercial kit. […] The reaction was analyzed using a SDS 7000. A plasmid containing the full length insert of the HBV genome was used to prepare the standard curve. The amount of viral DNA produced in treated cultures was expressed as a percentage of the mock treated samples. […] The cytostatic effect of the various compounds was assessed employing the parent hepatoma cell line HepG2. The effect of the compounds on exponentially growing HepG2 cells was evaluated by means of the MTS method. Briefly, cells were seeded at a density of 3000/well (96 well plate) and were allowed to proliferate for 3 days in the absence or presence of compounds after which the optical density was measured with a 96-well plate reader and cell density was determined.

HBV [4] = test: Anti-HBV test in infected Huh7 cells; type: cell-based; conditions: Hepatitis B virus, Huh-7, read-out: EC50 (μM) HBV
HIV-1 (IIIB) = test: Anti-HIV test in CEM cell cultures, syncytium formation, HIV-1 (IIIB); type: cell-based; conditions: Human immunodeficiency virus 1, IIIB, CCRF-CEM, read-out: EC50 (μM) HIV-1
Description: Briefly, CEM cells (4.5×10^5 cells per ml) were suspended in fresh culture medium and infected with HIV-1 at 100 CCID50 per ml of cell suspension. Then, 100 μl of the infected cell suspension were transferred to microplate wells, mixed with 100 μl of the appropriate dilutions of the test compounds, and further incubated at 37° C. After 4 to 5 days, giant cell formation was recorded microscopically in the CEM cell cultures.

HIV-2 (ROD) = test: Anti-HIV test in CEM cell cultures, syncytium formation, HIV-2 (ROD); type: cell-based; conditions: Human immunodeficiency virus 2, CCRF-CEM, read-out: EC50 (μM) HIV-2
[5] = Cytostatic effect on parent hepatoma cell line HepG2 (MTS method); conditions: human
influenza A (H3N2) = test: Virus panel: influenza A (H3N2) in MDCK cells; type: cell-based; conditions: read-out: in vitro antiviral activity (EC50), none up to
Description: (§2) influenza A (H1N1), influenza A (H3N2), influenza B, in MDCK cells;

[6] = system: vesicular stomatitis virus; test: microbe, parasite or virus in culture; type: cell-based; conditions: HEL, read-out: in vitro antiviral activity (EC50), none up to
[7] = Cytotoxicity by MTT test in cultures of uninfected CMSP; conditions: human
Feline Herpes virus = test: Virus panel: Feline Herpes virus in CRFK cells; type: cell-based
Description: Feline Corona virus and Feline Herpes virus in CRFK cells.

[8] = Stability in total cell extracts (CEM-SS), HPLC; type: in vitro ADME; conditions: 37° C., 0.1 mM
Description: as §1
Kinetic data and decomposition pathways for compounds 6 and 11 were studied at 37° C. […]
All the compounds were analyzed under the same conditions. […] The product of degradation from parent compound was determined by comparison with corresponding references.

influenza A (H1N1) = test: Virus panel: influenza A (H1N1) in MDCK cells; type: cell-based; conditions: read-out: in vitro antiviral activity (EC50), none up to
Description: as §2

Coxsackie B4 = test: Virus panel, CPE assay: Coxsackie B4 virus in Hela and Vero cells; type: cell-based; conditions: Enterovirus B, read-out: in vitro antiviral activity (EC50), none up to
Punta Toro virus = test: Virus panel, CPE assay: Punta Toro virus in Vero cells; type: cell-based; conditions: read-out: in vitro antiviral activity (EC50), none up to
influenza B = test: Virus panel: influenza B in MDCK cells; type: cell-based; conditions: read-out: in vitro antiviral activity (EC50), none up to
Description: as §2

[9] = system: respiratory syncytial virus; test: Virus panel, CPE assay: respiratory syncytial virus in Hela cells; type: cell-based; conditions: human respiratory syncytial virus, read-out: in vitro antiviral activity (EC50), none up to
[10] = system: Herpes simplex virus-2 (G); test: Virus panel, CPE assay: Herpes simplex virus-2 (G) in HEL cells; type: cell-based; conditions: Human alphaherpesvirus 2

Nc1ncnc2c1ncn2CCOCP(=O)(O)S (stereo not drawn) [Compound 6, 9-[2-(thiophosphonomethoxy)ethyl]adenine]
half-life at 0.1 mM ([1]; bovine, serum, 37° C., initial concentration 0.1 mM, read-out: t1/2 complete medium): > 24 h | product intact ([1]; complete medium, 37° C., degradation into the phosphonate): ^a: product 80% intact (degradation into PMEA) | degradation ([1]; culture medium): 20% | EC50 (Reovirus-1): > 200 µM | CC50 [2]: > 332 µM | EC50 (HIV-1-LAI): 7 µM | EC50 (Sindbis virus): > 200 µM | EC50 (Parainfluenza-3-virus): > 200 µM | EC50 (HBV [3]): 9.6 µM | EC50 (HBV [4]): 4.5 µM | EC50 (HIV-1 (IIIB)): 12.2 µM | EC50 (HIV-2 (ROD)): 10.4 µM | CC50 at 3 days [5]: > 166 µM | EC50 (influenza A (H3N2)): > 200 µM | EC50 [6]: > 200 µM | CC50 at 7 days [7]: > 42 µM | EC50 (Feline Herpes virus): 38 µM | t1/2 cell extracts [8]: stable^c | EC50 (influenza A (H1N1)): > 200 µM | EC50 (Coxsackie B4): > 200 µM | EC50 (Punta Toro virus): > 200 µM | EC50 (influenza B): > 200 µM | EC50 [9]: > 200 µM | EC50 [10]: 58 µM
